The record followed here is patent US20250177421A1, “METHOD FOR PREVENTING OR TREATING HEARING LOSS” (MACKAY MEDICAL COLLEGE, priority 2022, published 2025).

Data set [1] has as its system cisplatin-injected mice. The data set is described as follows: Loss of outer hair cells (OHCs) count in cochlear tissues, cisplatin-induced SNHL in mice. It counts as in vivo. As for the experimental part:
(§1) The used procedures followed the protocol reported by Wu et al.^[3]. Inositol hexaphosphate (IP6) obtained from Sigma (USA) was dissolved in ddH2O, and the doses given to the experimental mice intraperitoneally were 40 mg/kg and 80 mg/kg (100 μL of IP6). […] The mice of the control group received only phosphate-buffered saline (PBS, 100 μL).
Experimental mice were anesthetized, and their cochlear tissues were isolated and dissected. For whole-mount dissection, the protocol detailed by Neal et al. was followed^[5]. In brief, the cochlea was decalcified for 1 hour using a decalcification solution purchased from Apex Engineering (Aurora, IL, USA). The excess temporal bone around the cochlea was trimmed, and the cochlea was bisected along the midmodiolar plane and then submerged in phosphate buffered saline (PBS). A series of cuts through the modiolus separated the half-turns from one another. […]
For the loss of OHCs counts, hair cells (HCs) were counterstained with phalloidin, Myo7A and DAPI stainings. […] The images at three randomly-selected regions (300 μm length) in the apical, middle, and basal cochlear turns were acquired by using the same apparatus, and the loss of OHCs was manually counted. Average loss of OHCs was then calculated in apex, middle and base regions, respectively^[6]. Fluorescent images were taken with a Leica SP8 confocal fluorescence microscope. […]

Details of data set [2]: species or system mice. Conditions: mouse, in vivo. The protocol: as §1
Data set [3] has as its system kanamycin/furosemide-injected mice. The data set is described as follows: ABR hearing threshold, kanamycin/furosemide-induced SNHL in mice. Conditions: IP6 80 mg/kg or fucoxanthin 60 mg/kg IP for 5 consecutive days. It counts as in vivo. The protocol:
For the kanamycin-induced SNHL in mice, the schematic protocol for the dosing and timing of kanamycin, furosemide, IP6 and/or fucoxanthin was presented in FIG. 1B. Kanamycin (Sigma Aldrich, USA) was dissolved in PBS, and kanamycin (1 mg/g) and furosemide (0.1 mg/g, Sigma Aldrich, USA) were injected as a single dose on the first day. Specifically, furosemide was intraperitoneally injected within 30 min after kanamycin was injected subcutaneously (SC). One hour later, IP6 and/or fucoxanthin was intraperitoneally injected for 5 consecutive days. The ABR of mice was measured to evaluate their hearing threshold. In brief, measurements were performed on the scalps of mice under anesthesia by using subdermal needle electrodes placed at the vertex, below the pinna of the left ear (as a reference measurement), and below the contralateral ear (ground). The sound stimuli included clicks ([…]; 4, 8, and 12 kHz). The devices used for ABR measurement were specifically designed for animal experiments (BIOPAC System, USA). […] The ABR threshold was measured through detection of the presence of V waves. […] One week later, the hearing threshold of all groups of mice was measured using ABR instrument. […]

Data set [4] concerns cisplatin-injected mice. The data set is described as follows: Auditory brainstem response (ABR) hearing threshold, cisplatin-induced SNHL in mice. The data set is classed as in vivo. Conditions: cisplatin-injected mice (3 mg/kg IP, 5 days) with IP6 40 or 80 mg/kg IP; measured one week later.
Data set [5] relates to kanamycin/furosemide-injected mice. The data set is described as follows: Loss of OHCs in cochlear tissues (immunohistochemical staining), kanamycin/furosemide-induced SNHL in mice. It counts as in vivo. Conditions: IP6 80 mg/kg IP for 5 days in kanamycin/furosemide-injected mice. The protocol: For the kanamycin-induced SNHL in mice, the schematic protocol for the dosing and timing of kanamycin, furosemide, IP6 and/or fucoxanthin was presented in FIG. 1B. Kanamycin (Sigma Aldrich, USA) was dissolved in PBS, and kanamycin (1 mg/g) and furosemide (0.1 mg/g, Sigma Aldrich, USA) were injected as a single dose on the first day. Specifically, furosemide was intraperitoneally injected within 30 min after kanamycin was injected subcutaneously (SC). One hour later, IP6 and/or fucoxanthin was intraperitoneally injected for 5 consecutive days. Experimental mice were anesthetized, and their cochlear tissues were isolated and dissected. For whole-mount dissection, the protocol detailed by Neal et al. was followed^[5]. In brief, the cochlea was decalcified for 1 hour using a decalcification solution purchased from Apex Engineering (Aurora, IL, USA). […] The images at three randomly-selected regions (300 μm length) in the apical, middle, and basal cochlear turns were acquired by using the same apparatus, and the loss of OHCs was manually counted. Average loss of OHCs was then calculated in apex, middle and base regions, respectively^[6]. Fluorescent images were taken with a Leica SP8 confocal fluorescence microscope. […] One week later, the hearing threshold of all groups of mice was measured using ABR instrument. […]

In a further data set the test system is mouse cochlear tissues. The data set is described as follows: NanoString neuropathology gene expression analysis of cochlear tissues. The data set is classed as in vivo, mice. The protocol:
Total mRNA was extracted from mouse cochlear tissues as per the protocol described in previous studies^[10, 11]. The expression profile of neuropathological genes was analyzed using a NanoString mouse neuropathology panel (NanoString Technologies, Seattle, WA, USA), which includes genes involved in neural cell types and neuropathological processes^[12, 13]. All analyses of genes or pathways scores were performed in accordance with the user manual of the nCounter Advanced Analysis Software and were described in detail in previous studies^[10, 11]. Cold Spring Biotech in Taiwan was responsible for performing the NanoString gene expression analysis and bioinformatics analyses.

A further data set relates to aging mice. The data set is described as follows: ABR hearing threshold, age-related hearing loss (ARHL) mouse model. The data set is classed as in vivo. As to conditions: IP6 drink group (2% IP6 in drinking water for 10 months), 12-month-old mice.
The test system of data set [6] is 12-month-old C57BL/6J mice. As to the kind of experiment: Loss of OHCs and IHCs in cochlear tissues (immunohistochemical staining), ARHL mouse model. The data set is classed as in vivo. As to conditions: 12-month-old mice.
The mark [7] stands for this setting: 2% IP6 through drinking water for 10 months.
Setting [8] is: IP6 80 mg/kg IP three days per week for 10 months.

Regarding `N.N.[Cl][Pt][Cl]` [cisplatin, reference compound], the “loss of OHCs (Myo7A+) in the apex, middle, and base regions” value (“loss of OHCs … middle, and base regions” below) with cisplatin-injected mice [1] (cisplatin 3 mg/kg IP once per day for 5 days, compared with the control group) is “significant loss”. In addition, in data set [2], the “serum alanine aminotransferase (ALT)” value was “no difference”, the “serum aspartate aminotransferase (AST)” value was “no difference” and the serum total bilirubin entry was “no difference”.

fucoxanthin: in data set [3], the “hearing threshold (ABR) of kanamycin/furosemide-injected mice” value is “significant reduction”.

For the molecule `O=P(O)(O)O[C@H]1[C@H](OP(=O)(O)O)[C@@H](OP(=O)(O)O)[C@H](OP(=O)(O)O)[C@@H](OP(=O)(O)O)[C@H]1OP(=O)(O)O` [IP6, inositol hexaphosphate], the “loss of OHCs … middle, and base regions” value in the data set on cisplatin-injected mice [1] (IP6 80 mg/kg IP 2 h before cisplatin 3 mg/kg IP, once per day for 5 days, compared with cisplatin-injected mice without IP6) is recorded as “significantly reduced”. Also, the “hearing threshold (ABR) after IP6 treatment” value in the data set on cisplatin-injected mice [4] fell in the range of 20 to 30 db. Moreover, in data set [2], the “serum alanine aminotransferase (ALT)” value was “no difference”, the “serum aspartate aminotransferase (AST)” value is recorded as “no difference” and the serum total bilirubin entry is reported as “no difference”. Moreover, the “hearing threshold (ABR) of kanamycin/furosemide-injected mice” value in data set [3] is “significant reduction”. For the same molecule, the “loss of OHCs (Myo7A+) in the apex, middle and base regions of the cochlear tissues” value in data set [5] is given as “significantly reduced”. For the same molecule, in the data set with mouse cochlear tissues (IP6 treatment), the “carbohydrate metabolism: mRNA levels of Akt3, Slc1a1, and Slc1a2” value was “upregulated”. Also, in the data set on mouse cochlear tissues (IP6 treatment, P<0.05), the “lipid metabolism: mRNA levels of Cers6, Dgkb, Dgke, B4galt6, and Pla2g4c” value was “upregulated”. Further, in the data set with mouse cochlear tissues (after IP6 treatment (80 mg/kg), kanamycin/furosemide-injected mice, P<0.05), the “microglia gene score: mRNA levels of Amigo1, Atp6v1a, and Ap3m2” value is recorded as “significantly upregulated”. The “endothelial cell gene score: mRNA levels of Nrxn1 and Prkcb” value in the data set on mouse cochlear tissues (after IP6 treatment (80 mg/kg), Nrxn1 P<0.01, Prkcb P<0.05) is reported as “significantly upregulated”. Moreover, the “neuron score genes (Plcb4, Cacna1a, Calb1, Hen1, Cur1, Arhgap44, Gria4, Scn1a, Grik2, Cntnap1, Shank2, Lrrc4, Rab3a, Nrxn1, Adora1, Pak1, Frmpd4, Scn2a1, Dagla, Atcay)” value in the data set on mouse cochlear tissues (after IP6 treatment (80 mg/kg), P<0.01) was “significantly upregulated”. Also, the “myelination gene score: mRNA levels of Cntnap1, Scn2a1, and Amigo1” value in the data set on mouse cochlear tissues (after IP6 treatment, Cntnap1 P<0.01, Scn2a1 and Amigo1 P<0.05) is recorded as “significantly upregulated”. The “vesicle trafficking gene scores: mRNA levels of Cacna1a, Calb1, Gabrb2, Syt4, Cnr1, Gria4, Grik2, Rims1, Cacnb4, Stx1b, Shank2, Fgf14, Syt13, Rab3a, Ncam1, Nrxn1, Adora1, Nova1, Gabra1, Rit2” value in the data set with mouse cochlear tissues (after IP6 treatment, P<0.01) is “significantly upregulated”. Moreover, in the data set on mouse cochlear tissues (kanamycin/furosemide-injected mice, 80 mg/kg IP6), the “transcriptional patterns of astrocytes, endothelial cells, microglia, and neurons” value was “reversed”. Besides, in the data set on aging mice, the “hearing function at the frequency of 12 kHz compared with the control group” value was “significantly improved”. In addition, in data set [6] (setting [7]), the “loss of IHCs (Myo7A+) in the base regions” value was “moderately mitigated”; the “loss of OHCs … middle, and base regions” value is recorded as “moderately mitigated”. Also, in data set [6] (setting [8]), the “loss of IHCs (Myo7A+) in the base regions” value is reported as “moderately mitigated”; the “loss of OHCs … middle, and base regions” value is “moderately mitigated”.
